{"source": "paper PMC4850288", "about": "“Crystal Structure and Activity Studies of the C11 Cysteine Peptidase from Parabacteroides merdae in the Human Gut Microbiome” (The Journal of Biological Chemistry, 2016)", "key": {"[1]": {"target": "T1, PmC11 (Parabacteroides merdae, UniProt A0ABF7PHE6, K147A, form not given)", "T1 construct": "gene PARMER_00083; signal peptide Met1-Asn22 deleted (for structure); N-terminal tag MGSDKIHHHHHHENLYFQ/G, kept in assays; E. coli BL21 Star (DE3); monomer", "T1 sequence (A0ABF7PHE6 23-147 K147A)": "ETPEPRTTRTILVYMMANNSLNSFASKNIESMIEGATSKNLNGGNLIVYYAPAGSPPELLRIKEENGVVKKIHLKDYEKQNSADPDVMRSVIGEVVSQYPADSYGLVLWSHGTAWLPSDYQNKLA", "T1 sequence (A0ABF7PHE6 148-375)": "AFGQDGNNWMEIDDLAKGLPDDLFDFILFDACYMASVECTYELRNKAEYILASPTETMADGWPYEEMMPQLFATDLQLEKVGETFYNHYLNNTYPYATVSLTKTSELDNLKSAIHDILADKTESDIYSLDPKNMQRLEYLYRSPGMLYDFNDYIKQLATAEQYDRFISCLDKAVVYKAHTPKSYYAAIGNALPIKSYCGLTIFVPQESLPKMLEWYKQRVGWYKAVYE", "assay": "fluorogenic AMC release, Lineweaver-Burk", "format": "biochemical", "details": "pH 8.0, 20 mM Tris, 150 mM NaCl, 37 °C; enzyme preincubated 16 h at 37 °C; 0-600 μM substrate; unprocessed cleavage-site mutant", "description": "(§1) fluorogenic AMC release, Lineweaver-Burk on PmC11 | Km and Vmax of PmC11 and K147A mutant were determined by monitoring change in the fluorescence"}, "[2]": {"target": "T2, PmC11 (Parabacteroides merdae, UniProt A0ABF7PHE6)", "T2 construct": "gene PARMER_00083; signal peptide Met1-Asn22 deleted (for structure); N-terminal tag MGSDKIHHHHHHENLYFQ/G, kept in assays; E. coli BL21 Star (DE3); monomer", "T2 sequence (A0ABF7PHE6 23-147)": "T1 sequence (A0ABF7PHE6 23-147 K147A) with A125K", "T2 sequence (A0ABF7PHE6 148-375)": "T1 sequence (A0ABF7PHE6 148-375)", "assay": "fluorogenic AMC release, Lineweaver-Burk", "format": "biochemical", "details": "pH 8.0, 20 mM Tris, 150 mM NaCl, 37 °C; enzyme preincubated 16 h at 37 °C; 0-600 μM substrate", "description": "as §1"}}, "note": "Residue numbers refer to the chain shown, from its start."}
{"smiles": "Cc1cc(=O)oc2cc(NC(=O)[C@H](CCCNC(=N)N)NC(=O)c3ccccc3)ccc12", "note": "[Bz-R-AMC, benzoyl-L-Arg-4-methylcoumaryl-7-amide]", "values": [{"measurement": "Km", "setting": "[1]", "value": "301 ± 239", "unit": "µM"}, {"measurement": "Km", "setting": "[2]", "value": "274 ± 6", "unit": "µM"}]}
